The values that follow come from US20070043024A1, “Azacyclic compounds as inhibitors of sensory neurone specific channels” (priority 2003, published 2007).

Where two headings read alike, the source gives them in different places.

A word on the IC50: it is the concentration needed to halve the response being measured.

The test deals with T1, human Nav1.8 (hNav1.8) ion channel (Homo sapiens, UniProt Q9Y5Y9).
T1 construct: expressed in transfected cells
As to the kind of experiment: Inhibition of human Nav1.8 stably expressed in SH-SY-5Y cells (membrane potential dye fluorescence assay). The format is cell-based. Here is the method: Inhibition of Human Nav1.8 Stably Expressed in SH-SY-5Y Cells
A SH-SY-5Y neuroblastoma cell line stably expressing the human […] (hNav1.8) ion channel was constructed. This cell line has been used to develop a medium to high throughput assay for determining the ability of test compounds to inhibit membrane depolarisation mediated via the hNav1.8 channel.
SH-SY-5Y hNav1.8 are grown in adherent monolayer culture using 50:50 Ham's F-12/EMEM tissue culture medium supplemented with 15% (v/v) foetal bovine serum; 2 mM L-glutamine, 1% NEAA and 600 μg·ml^−1 Geneticin sulphate. Cells are removed from the tissue culture flask using trypsin/EDTA and re-plated into black walled, clear bottom 96-well assay plates at 50,000 cells·well^−1 24 hours prior to assay.
On the day of assay the cell assay plates are washed to remove cell culture medium using a sodium free assay buffer (145 mM tetramethyl ammonium chloride; 2 mM calcium chloride; 0.8 mM magnesium chloride hexahydrate; 10 mM HEPES; 10 mM glucose; 5 mM potassium chloride, pH 7.4). Fluorescent membrane potential dye solution (FLIPR™ membrane potential dye, Molecular Devices Corporation), containing 10 μM of a pyrethroid to prevent channel inactivation and 250 nM tetrodotoxin (TTX) to reduce interference from TTX-sensitive sodium channels present in the cell line. Test compound, initially dissolved in dimethyl sulfoxide but further diluted in sodium free buffer, is added to achieve the final test concentration range of 100 μM-0.05 μM.
Cell plates are incubated for 30 minutes at room temperature to allow equilibration of dye and test compound. Plates are then transferred to a fluorescence plate reader for fluorescence measurement using an excitation wavelength of 530 nm whilst measuring fluorescence emission at 565 nm. Baseline fluorescence levels are first determined before the addition of a sodium containing buffer (220 mM sodium chloride; 2 mM calcium chloride; 0.8 mM magnesium chloride hexahydrate; […]; 10 mM glucose; 5 mM potassium chloride. pH 7.4) to cause membrane depolarisation in those cells where channel block has not been effected (final sodium concentration=72.5 mM). Membrane depolarisation is registered by an increase in fluorescence emission at 565 nm.
The change in fluorescence seen in each test well upon the addition of sodium containing buffer is calculated relative to the baseline fluorescence for that well. This figure is then used for calculating the IC50 for each test compound.

The mark [1] stands for this setting: Table 1, SH-SY-5Y hNav1.8 cells, inhibition of membrane depolarisation, FLIPR membrane potential dye, 250 nM TTX, test concentration range 100 μM-0.05 μM, read-out: IC50.
[2] abbreviates: Table 2 (compound numbers of the list in the description), SH-SY-5Y hNav1.8 cells, inhibition of membrane depolarisation, FLIPR membrane potential dye, 250 nM TTX, test concentration range 100 μM-0.05 μM, read-out: IC50.

T1 sequence (Q9Y5Y9 whole entry): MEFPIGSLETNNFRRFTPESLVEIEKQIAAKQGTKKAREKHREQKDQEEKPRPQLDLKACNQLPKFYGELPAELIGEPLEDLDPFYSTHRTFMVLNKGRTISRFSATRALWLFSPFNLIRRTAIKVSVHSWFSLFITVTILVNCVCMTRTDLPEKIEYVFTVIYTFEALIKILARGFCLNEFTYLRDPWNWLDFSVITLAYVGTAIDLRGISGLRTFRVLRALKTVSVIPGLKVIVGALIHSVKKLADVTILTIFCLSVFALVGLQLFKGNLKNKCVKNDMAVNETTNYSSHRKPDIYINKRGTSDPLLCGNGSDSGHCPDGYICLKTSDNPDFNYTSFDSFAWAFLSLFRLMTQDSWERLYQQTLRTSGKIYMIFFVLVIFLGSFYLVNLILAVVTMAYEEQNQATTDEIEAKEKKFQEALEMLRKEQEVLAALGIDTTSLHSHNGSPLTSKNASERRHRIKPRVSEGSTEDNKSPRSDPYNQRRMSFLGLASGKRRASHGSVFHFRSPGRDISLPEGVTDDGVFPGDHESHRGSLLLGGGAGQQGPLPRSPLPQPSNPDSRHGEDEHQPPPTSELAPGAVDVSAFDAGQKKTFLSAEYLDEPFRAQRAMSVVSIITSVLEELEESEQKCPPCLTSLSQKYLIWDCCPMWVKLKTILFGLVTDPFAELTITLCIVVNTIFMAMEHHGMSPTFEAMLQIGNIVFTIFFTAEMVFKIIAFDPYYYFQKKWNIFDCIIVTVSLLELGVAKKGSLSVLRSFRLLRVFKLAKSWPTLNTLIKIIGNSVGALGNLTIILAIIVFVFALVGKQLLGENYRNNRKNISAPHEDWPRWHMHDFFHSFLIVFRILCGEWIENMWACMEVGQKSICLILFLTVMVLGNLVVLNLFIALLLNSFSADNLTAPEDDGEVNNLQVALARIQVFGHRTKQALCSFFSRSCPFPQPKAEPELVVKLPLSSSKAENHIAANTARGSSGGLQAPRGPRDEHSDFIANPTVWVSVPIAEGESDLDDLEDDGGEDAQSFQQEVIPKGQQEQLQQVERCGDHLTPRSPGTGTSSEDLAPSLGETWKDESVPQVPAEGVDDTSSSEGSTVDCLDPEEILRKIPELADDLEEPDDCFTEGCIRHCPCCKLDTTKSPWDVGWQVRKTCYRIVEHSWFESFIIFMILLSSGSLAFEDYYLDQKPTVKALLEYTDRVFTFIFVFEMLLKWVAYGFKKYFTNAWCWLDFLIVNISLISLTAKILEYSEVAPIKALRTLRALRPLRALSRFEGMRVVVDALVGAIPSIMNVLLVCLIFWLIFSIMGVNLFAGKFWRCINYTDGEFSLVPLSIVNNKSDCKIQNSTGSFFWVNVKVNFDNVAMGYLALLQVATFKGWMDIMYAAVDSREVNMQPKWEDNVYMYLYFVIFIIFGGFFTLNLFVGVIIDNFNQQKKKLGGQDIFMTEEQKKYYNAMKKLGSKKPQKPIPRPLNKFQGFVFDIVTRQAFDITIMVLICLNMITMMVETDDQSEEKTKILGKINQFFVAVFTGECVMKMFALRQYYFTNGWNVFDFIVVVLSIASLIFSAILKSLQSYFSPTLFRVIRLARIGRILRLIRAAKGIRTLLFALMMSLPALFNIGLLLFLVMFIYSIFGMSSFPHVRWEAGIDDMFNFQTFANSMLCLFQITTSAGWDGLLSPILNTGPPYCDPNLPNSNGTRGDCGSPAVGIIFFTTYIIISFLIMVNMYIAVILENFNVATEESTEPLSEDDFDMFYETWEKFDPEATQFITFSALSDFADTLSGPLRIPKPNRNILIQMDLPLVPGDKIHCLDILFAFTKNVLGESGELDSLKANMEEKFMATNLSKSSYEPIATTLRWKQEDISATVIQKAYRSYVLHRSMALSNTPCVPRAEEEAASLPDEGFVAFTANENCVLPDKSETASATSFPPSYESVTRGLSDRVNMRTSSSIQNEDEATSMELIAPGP

Take `c1ccc(C(CCNCCN2CCc3ccccc3C2)c2ccccc2)cc1` [Example 46, [2-(3,4-Dihydro-1H-isoquinolin-2-yl)-ethyl]-(3,3-diphenyl-propyl)-amine]: the IC50 under setting [1] worked out at 290 nM.

In the case of `COc1cccc2c1CN(CC(=O)N(c1ccccc1)c1ccccc1)CC2` [Compound 150, 2-(8-Methoxy-3,4-dihydro-1H-isoquinolin-2-yl)-N,N-diphenyl-acetamide], the IC50 under setting [2] is 1790 nM.

`COc1cccc2c1CN(C(=O)CON=C(c1ccccc1)c1ccccc1)CC2` [Example 43, 2-Benzhydrylideneaminooxy-1-(8-methoxy-3,4-dihydro-1H-isoquinoline-2-yl)-ethanone]: under setting [1], the half-inhibitory concentration (IC50) is 1670 nM.

For “3,4-Dihydro-1H-isoquinoline-2-carbothioic acid benzhydryl-amide [Example 53]”, the IC50 under setting [1] amounted to 4060 nM.

On to `CCC1COc2ccccc2N1C(=O)CN1CCc2cccc(OC)c2C1` (stereo not shown) [Compound 208, 1-(3-Ethyl-2,3-dihydro-benzo[1,4]oxazin-4-yl)-2-(8-methoxy-3,4-dihydro-1H-isoquinolin-2-yl)-ethanone], for which the IC50 under setting [2] was determined as 1680 nM.

Regarding `O=C(CN1Cc2ccccc2C1)NC(c1ccccc1)c1ccccc1` [Example 41, N-Benzhydryl-2-(1,3-dihydro-isoindol-2-yl)-acetamide], the IC50 under setting [1] came out at 7020 nM.

Regarding `O=C(CNCC(c1ccccc1)c1ccccc1)N1CCc2ccccc2C1` [Example 32, 1-(3,4-Dihydro-1-isoquinolin-2-yl)-2-(2,2-diphenyl-ethylamino)-ethanone], under setting [1], the IC50 was 230 nM.

Turning to `Nc1cccc2c1CN(CC(=O)NCCCC(c1ccccc1)c1ccccc1)CC2` [Compound 109, 2-(8-Amino-3,4-dihydro-1H-isoquinolin-2-yl)-N-(4,4-diphenyl-butyl)-acetamide], the IC50 under setting [2] came to 1800 nM.

As for `Nc1cccc2c1CN(CC(=O)N(Cc1ccccc1)Cc1ccccc1)C2` [Compound 101, 2-(4-Amino-1,3-dihydro-isoindol-2-yl)-N,N-dibenzyl-acetamide], under setting [2], the IC50 worked out at 4260 nM.

As for `O=C(CN1Cc2ccccc2C1)N1CCN(C(c2ccccc2)c2ccccc2)CC1` [Example 67, 1-(4-Benzhydryl-piperazin-1-yl)-2-(1,3-dihydro-isoindol-2-yl)-ethanone], the IC50 under setting [1] worked out at 2350 nM.

For `O=C(CN1CCc2ccccc2C1)N1CCN(C(c2ccccc2)c2ccccc2)CC1` [Example 64, 1-(4-Benzhydryl-piperazin-1-yl)-2-(3,4-dihydro-1H-isoquinolin-2-yl)-ethanone], the IC50 under setting [1] is 3140 nM.

With `COc1cccc2c1CN(CC(=O)N(c1ccccc1O)c1ncccc1N)CC2` [Compound 188, N-(3-Amino-pyridin-2-yl)-N-(2-hydroxy-phenyl)-2-(8-methoxy-3,4-dihydro-1H-isoquinolin-2-yl)-acetamide], the half-inhibitory concentration (IC50) under setting [2] is 12000 nM.

For the compound `COc1cc2c(cc1OC)CN(CC(=O)NC(c1ccc(F)cc1)c1ccc(F)cc1)CC2` [Compound 121, N-[Bis-(4-fluoro-phenyl)-methyl]-2-(6,7-dimethoxy-3,4-dihydro-1H-isoquinolin-2-yl)-acetamide], the IC50 under setting [2] was 3450 nM.

Regarding `CS(=O)(=O)Oc1cccc2c1CN(CC(=O)N1c3ccccc3Oc3ccccc31)CC2` [Compound 191, Methanesulfonic acid 2-(2-oxo-2-phenoxazin-10-yl-ethyl)-1,2,3,4-tetrahydro-isoquinolin-8-yl ester], under setting [2], the IC50 came out at 1270 nM.

In the case of `O=C(CN1CCc2cccc(O)c2C1)NC(c1ccccc1)c1ccccc1` [Example 24, N-Benzhydryl-2-(8-hydroxy-3,4-dihydro-1H-isoquinolin-2-yl)-acetamide], under setting [1], the IC50 was found to be 1510 nM.

`O=C(CN1Cc2ccccc2C1)N1c2ccccc2Oc2ccccc21` [Compound 178, 2-(1,3-Dihydro-isoindol-2-yl)-1-phenoxazin-10-yl-ethanone]: the IC50 under setting [2] amounted to 620 nM.

As to `COc1cccc2c1CN(CC(=O)NCC(c1ccccc1)c1ccccc1)CC2` [Example 61, N-(2,2-Diphenyl-ethyl)-2-(8-methoxy-3,4-dihydro-1H-isoquinolin-2-yl)-acetamide], under setting [1], the IC50 was 2560 nM.

For the compound `COc1cccc2c1CN(CC(=O)NCC[S+]([O-])C(c1ccccc1)c1ccccc1)CC2` (stereo not shown) [Compound 103, N-[2-(Diphenyl-methanesulfinyl)-ethyl]-2-(8-methoxy-3,4-dihydro-1H-isoquinolin-2-yl)-acetamide], half-maximal inhibition (IC50) was put at 2250 nM.

`O=C(CN1CCc2ccccc2C1)NC(c1ccccc1)c1ccccc1` [Example 14, N-Benzyhydryl-2-(3,4-dihydro-1H-isoquinolin-2-yl)-acetamide]: under setting [1], the IC50 was found to be 1590 nM.

`COc1cccc2c1CN(CC(=O)N1c3ccccc3OCC1c1ccc(F)cc1)CC2` (stereo not shown) [Compound 215, 1-[3-(4-Fluoro-phenyl)-2,3-dihydro-benzo[1,4]oxazin-4-yl]-2-(8-methoxy-3,4-dihydro-1H-isoquinolin-2-yl)-ethanone]: the IC50 under setting [2] is 1110 nM.

Take `CCOc1cccc2c1CN(CC(=O)N(Cc1ccccc1)Cc1ccccc1)CC2` [Compound 91, N,N-Dibenzyl-2-(8-ethoxy-3,4-dihydro-1H-isoquinolin-2-yl)-acetamide]: the 50% inhibitory concentration (IC50) under setting [2] was 6980 nM.

For the compound `O=C(CNCCC(c1ccccc1)c1ccccc1)N1CCc2ccccc2C1` [Example 34, 1-(3,4-Dihydro-1H-isoquinolin-2-yl)-2-(3,3-diphenyl-propylamino)-ethanone], the IC50 under setting [1] was found to be 190 nM.

On to `Nc1cccc2c1CN(CC(=O)NCCCC(c1ccccc1)c1ccccc1)C2` [Compound 100, 2-(4-Amino-1,3-dihydro-isoindol-2-yl)-N-(4,4-diphenyl-butyl)-acetamide], for which, under setting [2], the IC50 is 970 nM.

For the compound `Oc1cccc2c1CN(Cc1c(F)cccc1Cl)CC2` [Example 91, 2-(2-Chloro-6-fluoro-benzyl)-1,2,3,4-tetrahydro-isoquinolin-8-ol], the IC50 under setting [1] came out at 6910 nM.

For the compound `COc1cc2c(cc1OC)CN(CCNC(=S)NCC(c1ccccc1)c1ccccc1)CC2` [Compound 138, 1-[2-(6,7-Dimethoxy-3,4-dihydro-1H-isoquinolin-2-yl)-ethyl]-3-(2,2-diphenyl-ethyl)-thiourea], the IC50 under setting [2] was determined as 520 nM.

For `COc1cccc2c1CN(CCCOC=C(c1ccccc1)c1ccccc1)CC2` [Compound 74, 2-[3-(2,2-diphenyl-vinyloxy)-propyl]-8-methoxy-1,2,3,4-tetrahydro-isoquinoline], the IC50 under setting [2] was found to be 1800 nM.

For the compound `COc1cccc2c1CN(CC(=O)NCCCC(c1ccccc1)c1ccccc1)CC2` [Compound 81, N-(4,4-diphenyl-butyl)-2-(8-methoxy-3,4-dihydro-1H-isoquinolin-2-yl)-acetamide], the IC50 under setting [2] amounted to 1400 nM.

In the case of `O=C(CN1CCc2c(O)cccc2C1)N1c2ccccc2Oc2ccccc21` [Compound 195, 2-(5-Hydroxy-3,4-dihydro-1H-isoquinolin-2-yl)-1-phenoxazin-10-yl-ethanone], the IC50 under setting [2] came to 1850 nM.

Regarding `Oc1cccc2c1CN(CCCC(c1ccc(F)cc1)c1ccc(F)cc1)CC2` [Example 96, 2-[4,4-Bis-(4-fluoro-phenyl)-butyl]-1,2,3,4-tetrahydro-isoquinolin-8-ol], the IC50 under setting [1] was 1940 nM.

Take `COc1cc2c(cc1OC)CN(CCNC(=O)NC(c1ccccc1)c1ccccc1)CC2` [Compound 136, 1-Benzhydryl-3-[2-(6,7-dimethoxy-3,4-dihydro-1H-isoquinolin-2-yl)-ethyl]-urea]: under setting [2], the IC50 worked out at 2110 nM.

Regarding `O=C(CN1CCc2cccnc2C1)N(c1ccccc1)c1ccccc1` [Compound 181, 2-(5,8-Dihydro-6H-[1,7]naphthyridin-7-yl)-N,N-diphenyl-acetamide], the IC50 under setting [2] turned out to be 20400 nM.

On to `COc1cc2c(cc1OC)CN(CCNC(=O)N1c3ccccc3Oc3ccccc31)CC2` [Compound 165, Phenoxazine-10-carboxylic acid [2-(6,7-dimethoxy-3,4-dihydro-1H-isoquinolin-2-yl)-ethyl]-amide], for which the IC50 under setting [2] worked out at 1020 nM.

`CC(=O)Nc1ccc(C(CCNC(=O)CN2CCc3ccccc3C2)c2ccccc2)cc1NC(C)=O` (stereo not shown) [Compound 116, N-[3-(3,4-Bis-acetylamino-phenyl)-3-phenyl-propyl]-2-(3,4-dihydro-1H-isoquinolin-2-yl)-acetamide]: the IC50 under setting [2] amounted to 22200 nM.

For `CCOC(=O)C1CN(C(=O)CN2CCc3cccc(O)c3C2)c2ccccc2O1` (stereo not shown) [Compound 170, 4-[2-(8-Hydroxy-3,4-dihydro-1H-isoquinolin-2-yl)-acetyl]-3,4-dihydro-2H-benzo[1,4]oxazine-2-carboxylic acid ethyl ester], the IC50 under setting [2] was determined as 1690 nM.
